Assay results taken from PubChem BioAssay AID322 (DTP/NCI, 2004).
Values joined by “and” are separate entries in the source; they are usually repeats but may differ in a detail not shown here. Equal values may be shown once. Inconclusive results and toxic doses are left out.

System: CD2F1 mice, P388/ADR leukemia ip, median survival T/C
Assay: NCI In Vivo Anticancer Drug Screen. Data for tumor model P388 Leukemia resistant to Adriamycin; NSC 123127, Developed at Scr 08 (intraperitoneal) in CD2F1 (CDF1) mice
Settings: endpoint: median survival time, higher = longer survival
Procedure: The antitumor activity of compounds was measured in mice bearing transplantable tumors. Survival or tumor size were measured and the results are expressed as the measurement made in the treated group (T) divided by the measurement made in the vehicle treated control group (C). The tumor model used in this assay is P388 Leukemia resistant to Adriamycin; NSC 123127, Developed at Scr 08 (intraperitoneal) in CD2F1 (CDF1) mice

[1] = dose: 44.0 mg/kg/injection, schedule: Q01DX005 (ip), vehicle: saline
[2] = dose: 100.0 mg/kg/injection, schedule: Q01DX005 (ip), vehicle: saline
[3] = dose: 22.0 micrograms/kg/injection, schedule: Q04DX003 (iv), vehicle: saline + alcohol
[4] = dose: 33.0 micrograms/kg/injection, schedule: Q04DX003 (iv), vehicle: saline + alcohol

Structure (SMILES): COc1cc(NS(C)(=O)=O)ccc1Nc1c2ccccc2nc2ccccc12
- T/C (dose: 1.25 mg/kg/injection, schedule: Q04DX003 (ip), vehicle: other): 102 % of control
- T/C (dose: 2.5 mg/kg/injection, schedule: Q04DX003 (ip), vehicle: other): 109 % of control
- T/C (dose: 2.59 mg/kg/injection, schedule: Q04DX003 (ip), vehicle: other): 107 % of control
- T/C (dose: 4.32 mg/kg/injection, schedule: Q04DX003 (ip), vehicle: other): 107 % of control
- T/C (dose: 5.0 mg/kg/injection, schedule: Q04DX003 (ip), vehicle: other): 109 % of control
- T/C (dose: 7.2 mg/kg/injection, schedule: Q04DX003 (ip), vehicle: other): 104 % of control
- T/C (dose: 10.0 mg/kg/injection, schedule: Q04DX003 (ip), vehicle: other): 109 % of control
- T/C (dose: 12.0 mg/kg/injection, schedule: Q04DX003 (ip), vehicle: other): 106 % of control
- T/C (dose: 20.0 mg/kg/injection, schedule: Q04DX003 (ip), vehicle: other): 105 % of control and 113 % of control

Structure (SMILES): O=C1C=C(N2CC2)C(=O)C(N2CC2)=C1N1CC1
- T/C (dose: 0.02 mg/kg/injection, schedule: Q01DX005 (ip), vehicle: saline): 180 % of control
- T/C (dose: 0.04 mg/kg/injection, schedule: Q01DX005 (ip), vehicle: saline): 176 % of control and 223 % of control
- T/C (dose: 0.08 mg/kg/injection, schedule: Q01DX005 (ip), vehicle: saline): 240 % of control and 294 % of control
- T/C (dose: 0.16 mg/kg/injection, schedule: Q01DX005 (ip), vehicle: saline): 233 % of control and 294 % of control
- T/C (dose: 0.32 mg/kg/injection, schedule: Q01DX005 (ip), vehicle: saline): 87 % of control and 110 % of control

Structure (SMILES): CN(C)CCN1C(=O)c2cccc3cc(N)cc(c23)C1=O
- T/C (dose: 7.0 mg/kg/injection, schedule: Q01DX009 (ip), vehicle: saline with Tween-80): 109 % of control and 117 % of control
- T/C (dose: 11.0 mg/kg/injection, schedule: Q01DX009 (ip), vehicle: saline with Tween-80): 116 % of control
- T/C (dose: 16.0 mg/kg/injection, schedule: Q01DX009 (ip), vehicle: saline with Tween-80): 106 % of control and 113 % of control
- T/C (dose: 24.0 mg/kg/injection, schedule: Q01DX009 (ip), vehicle: saline with Tween-80): 112 % of control and 116 % of control

Structure (SMILES): CO[C@@]12[C@@H]3N[C@@H]3CN1C1=C(C(=O)C(N3CCCC3)=C(C)C1=O)[C@@H]2COC(N)=O
- T/C (dose: 3.75 mg/kg/injection, schedule: Q01DX005 (ip), vehicle: saline with Tween-80): 122 % of control
- T/C (dose: 10.4 mg/kg/injection, schedule: Q01DX005 (ip), vehicle: saline with Tween-80): 122 % of control
- T/C (dose: 12.5 mg/kg/injection, schedule: Q01DX005 (ip), vehicle: saline with Tween-80): 117 % of control and 120 % of control
- T/C (dose: 17.4 mg/kg/injection, schedule: Q01DX005 (ip), vehicle: saline with Tween-80): 113 % of control

Structure (SMILES): CN(C)[C@@H]1C(=O)C(C(=O)NCN2CCN(C(=N)N=C(N)N)CC2)=C(O)[C@@]2(O)C(=O)C3=C(O)c4c(O)cccc4[C@@](C)(O)[C@H]3C[C@@H]12
- T/C (dose: 0.62 mg/kg/injection, schedule: Q01DX005 (ip), vehicle: saline): 113 % of control
- T/C (dose: 1.25 mg/kg/injection, schedule: Q01DX005 (ip), vehicle: saline): 100 % of control
- T/C (dose: 1.8 mg/kg/injection, schedule: Q01DX005 (ip), vehicle: suspension in saline): 97 % of control
- T/C (dose: 2.5 mg/kg/injection, schedule: Q01DX005 (ip), vehicle: saline): 106 % of control
- T/C (dose: 3.0 mg/kg/injection, schedule: Q01DX005 (ip), vehicle: suspension in saline): 115 % of control
- T/C (dose: 5.0 mg/kg/injection, schedule: Q01DX005 (ip), vehicle: saline): 152 % of control
- T/C (dose: 5.0 mg/kg/injection, schedule: Q01DX005 (ip), vehicle: suspension in saline): 107 % of control

Structure (SMILES): CO[C@H](/C(C)=C/C=C/C(C)=C/c1coc(C)n1)[C@H](C)[C@H]1C[C@@H](O)[C@@]2(C)O[C@H]2/C=C/[C@@H](C)[C@@H]2C[C@@H](CC(=O)O2)C[C@H]2O[C@@H]2C(=O)O1
- T/C (dose: 0.04 mg/kg/injection, schedule: Q01DX005 (ip), vehicle: Klucel (hydroxypropylcellulose) (HPC)): 105 % of control
- T/C (dose: 0.06 mg/kg/injection, schedule: Q01DX005 (ip), vehicle: Klucel (hydroxypropylcellulose) (HPC)): 109 % of control and 113 % of control
- T/C (dose: 0.08 mg/kg/injection, schedule: Q01DX005 (ip), vehicle: Klucel (hydroxypropylcellulose) (HPC)): 114 % of control
- T/C (dose: 0.09 mg/kg/injection, schedule: Q01DX005 (ip), vehicle: Klucel (hydroxypropylcellulose) (HPC)): 112 % of control
- T/C (dose: 0.1 mg/kg/injection, schedule: Q01DX005 (ip), vehicle: Klucel (hydroxypropylcellulose) (HPC)): 117 % of control
- T/C (dose: 0.12 mg/kg/injection, schedule: Q01DX005 (ip), vehicle: Klucel (hydroxypropylcellulose) (HPC)): 97 % of control
- T/C (dose: 0.13 mg/kg/injection, schedule: Q01DX005 (ip), vehicle: Klucel (hydroxypropylcellulose) (HPC)): 109 % of control
- T/C (dose: 0.14 mg/kg/injection, schedule: Q01DX005 (ip), vehicle: Klucel (hydroxypropylcellulose) (HPC)): 96 % of control
- T/C (dose: 0.16 mg/kg/injection, schedule: Q01DX005 (ip), vehicle: Klucel (hydroxypropylcellulose) (HPC)): 107 % of control
- T/C (dose: 0.2 mg/kg/injection, schedule: Q01DX005 (ip), vehicle: Klucel (hydroxypropylcellulose) (HPC)): 102 % of control

Structure (SMILES): Nc1ncn(C2OC(CO)C(O)C2O)c(=O)n1 (stereo not drawn)
- T/C (dose: 30.0 mg/kg/injection, schedule: Q01DX009 (ip), vehicle: saline): 232 % of control and 246 % of control
- T/C [1]: 183 % of control
- T/C (dose: 44.0 mg/kg/injection, schedule: Q01DX009 (ip), vehicle: saline): 248 % of control and 261 % of control
- T/C (dose: 67.0 mg/kg/injection, schedule: Q01DX005 (ip), vehicle: saline): 189 % of control
- T/C (dose: 67.0 mg/kg/injection, schedule: Q01DX009 (ip), vehicle: saline): 253 % of control and 280 % of control
- T/C [2]: 210 % of control
- T/C (dose: 100.0 mg/kg/injection, schedule: Q01DX009 (ip), vehicle: saline): 263 % of control and 270 % of control
- T/C (dose: 150.0 mg/kg/injection, schedule: Q01DX005 (ip), vehicle: saline): 206 % of control
- T/C (dose: 150.0 mg/kg/injection, schedule: Q01DX009 (ip), vehicle: saline): 277 % of control and 296 % of control
- T/C (dose: 200.0 mg/kg/injection, schedule: Q01DX005 (ip), vehicle: saline): 207 % of control

Structure (SMILES): CN(Cc1cnc2nc(N)nc(N)c2n1)c1ccc(C(=O)N[C@@H](CCC(=O)O)C(=O)O)cc1
- T/C (dose: 0.38 mg/kg/injection, schedule: Q01DX005 (ip), vehicle: sodium bicarbonate): 122 % of control
- T/C (dose: 0.75 mg/kg/injection, schedule: Q01DX005 (ip), vehicle: sodium bicarbonate): 155 % of control
- T/C (dose: 1.5 mg/kg/injection, schedule: Q01DX005 (ip), vehicle: sodium bicarbonate): 179 % of control
- T/C (dose: 3.0 mg/kg/injection, schedule: Q01DX005 (ip), vehicle: sodium bicarbonate): 191 % of control and 195 % of control

Structure (SMILES): Nc1nc(F)nc2c1ncn2C1OC(COP(=O)(O)O)C(O)C1O (stereo not drawn)
- T/C (dose: 60.0 mg/kg/injection, schedule: Q01DX009 (ip), vehicle: saline): 219 % of control and 239 % of control
- T/C (dose: 90.0 mg/kg/injection, schedule: Q01DX009 (ip), vehicle: saline): 309 % of control and 429 % of control
- T/C (dose: 134.0 mg/kg/injection, schedule: Q01DX009 (ip), vehicle: saline): 309 % of control and 445 % of control
- T/C (dose: 200.0 mg/kg/injection, schedule: Q01DX009 (ip), vehicle: saline): 309 % of control and 394 % of control
- T/C (dose: 250.0 mg/kg/injection, schedule: Q01DX009 (ip), vehicle: saline): 108 % of control

Structure (SMILES): CN=C(NC)c1ccc(NC(=O)/C=C\c2ccc(/C=C/C(=O)Nc3ccc(C(=NC)NC)cc3)cc2)cc1
- T/C (dose: 1.56 mg/kg/injection, schedule: Q01DX005 (ip), vehicle: Klucel (hydroxypropylcellulose) (HPC)): 107 % of control
- T/C (dose: 3.12 mg/kg/injection, schedule: Q01DX005 (ip), vehicle: Klucel (hydroxypropylcellulose) (HPC)): 109 % of control
- T/C (dose: 6.25 mg/kg/injection, schedule: Q01DX005 (ip), vehicle: Klucel (hydroxypropylcellulose) (HPC)): 116 % of control

Structure (SMILES): COc1cccc2c1C(=O)c1c(O)c3c(c(O)c1C2=O)C[C@@](O)(C(=O)CO)C[C@@H]3OC1CC(N2CCOCC2C#N)C(O)C(C)O1 (stereo partly drawn)
- T/C (dose: 9.38 micrograms/kg/injection, schedule: Q04DX003 (ip), vehicle: saline with Tween-80): 173 % of control and 175 % of control
- T/C (dose: 15.0 micrograms/kg/injection, schedule: Q04DX003 (iv), vehicle: saline + alcohol): 107 % of control
- T/C [3]: 99 % of control
- T/C [4]: 88 % of control
- T/C (dose: 37.5 micrograms/kg/injection, schedule: Q04DX003 (ip), vehicle: saline with Tween-80): 160 % of control

Structure (SMILES): COc1cccc2c1C(=O)c1c(O)c3c(c(O)c1C2=O)C[C@@](O)(C(=O)CO)C[C@@H]3OC1CC(N2CCOCC2)C(O)C(C)O1 (stereo partly drawn)
- T/C [3]: 107 % of control
- T/C [4]: 105 % of control
- T/C (dose: 50.0 micrograms/kg/injection, schedule: Q04DX003 (iv), vehicle: saline + alcohol): 102 % of control
- T/C (dose: 75.0 micrograms/kg/injection, schedule: Q04DX003 (iv), vehicle: saline + alcohol): 101 % of control

Structure (SMILES): CC(=O)N(C)c1ccc(Nc2cc(C)[nH]c3ccc4ncnc4c23)cc1
- T/C (dose: 30.0 mg/kg/injection, schedule: Q01DX005 (ip), vehicle: saline): 98 % of control
- T/C [1]: 114 % of control
- T/C [2]: 122 % of control
